Data on two compounds can be found in US11236357B2, “Methods of obtaining androecious cucurbit plants” (INSTITUT NATIONAL DE LA RECHERCHE AGRONOMIQUE (INRA), priority 2012, dated 2022).

Each structure is given as a SMILES string.

One assay deals with monoecious melon plants. To be noted: monoecious plants treated by ethrel; prior art; cited from earlier work.
Assay [1] deals with androecious plants (cucurbitaceae). In words: Induction of female flowers in androecious plants by ethrel. It counts as in vivo. Conditions: androecious plants treated with ethrel. From the text: The inventors wished to study the transmission of the androecious phenotype from one generation to the other. However, due to the nature of the plants, it is obviously impossible to fecundate an androecious plant with itself or another androecious plant.
The inventors have then treated the plants with ethrel, a growth regulator known for inducing female flowers in cucurbitaceae. […] The seeds derived from this fruit have been planted to produce plants which phenotype is androecious: the androecious phenotype of the present invention is thus heritable.

Assay [2] deals with Cucumis melo ACS8 variant Cmacs8_L45F (L45→F), SEQ ID No 15 (Cucumis melo, UniProt A0A0S2C3P7, L45F). It is filed as biochemical. To be noted: PLP 5 μm; pH 8.5, 25° C. The protocol: (§1) Dosing the Transforming Activity of Methionine S-adenosyl into Aminocyclopropane Carboxylate by the 1-aminocyclopropane-1-carboxylate Synthase 8 (ACS8)
(§2) The enzymatic activity of the ACS8 is measured in vitro by following, by 265-nm spectrophotometry, the formation of 5′-methylthioadenosine (MTA) after involving methionine S-adenosyl, deaminase and different PLP concentrations (pyridoxal 5′-phosphate).
The bacterial strain Escherichia coli BL21(DE3)pLYSS is used for the expression of the enzyme. The cloning vector used is the plasmid pET15b (NOVAGEN) which carries the promoter T7 and comprises resistance to ampicillin. S-adenosyl Methionine (SAM), Pyridoxal 5′phosphate (PLP) and 5′Adenylic Acid Deaminase of Aspergillus (deaminase) are available from the SIGMA company. […]
Due to the presence of a Histidine tag associated with each of the ACS8, the latter are purified by using a nickel column (Ni-IDA 15 ml) previously balanced with TRIS at PH8 and NaCl (500 mM). After passing the solution containing recombinant ACS8 to be purified, the column is then washed with TRIS at PH8 (50 mM) and NaCl (500 mM) added with imidazole (10 mM) until no protein can be detected at the output any longer. […]

The target in assay [3] is Cucumis melo ACS8 (1-aminocyclopropane-1-carboxylate synthase 8), CmACS8, wild, SEQ ID No 12 (Cucumis melo, UniProt A0A0S2C3P7). In words: Transforming activity of methionine S-adenosyl into aminocyclopropane carboxylate (MTA formation at 265 nm). It counts as biochemical. To be noted: pH 8.5, 25° C. The procedure:
as §1, §2
(§3) The bacterial strain Escherichia coli BL21(DE3)pLYSS is used for the expression of the enzyme. The cloning vector used is the plasmid pET15b (NOVAGEN) which carries the promoter T7 and comprises resistance to ampicillin. S-adenosyl Methionine (SAM), Pyridoxal 5′phosphate (PLP) and 5′Adenylic Acid Deaminase of Aspergillus (deaminase) are available from the SIGMA company.
(§4) These bacteria Escherichia coli BL21(DE3)pLYSS transformed with the construct carrying the 1-aminocyclopropane-1-carboxylate synthase 8 (ACS8) are incubated in 25 ml LURIA-BERTANI medium (tryptone 10 g/L, yeast extract 5 g/L, NaCl 10 g/L) added with ampicillin and chloramphenicol (50 μg/ml each) overnight at 37° C. This pre-culture is used to inoculate 2 litres of the same medium added with ampicillin (50 μg/ml) and the cells are cultivated at 37° C. in a stirred incubator (180 rpm) up to 0.6 Optical Density (DO=600 nm). IPTG is added (0.5 mM) so as to induce the protein expression during a new 5-hour culture phase at 25° C. Cells are centrifuged and kept overnight at −45° C. Cells are then re-suspended in 15 ml TrisNaCl (50 mM, pH7.9, 500 mM, respectively) then subjected to ice sonication in the presence of a protease inhibitor (phenylmethanesulfonyl fluoride), leupeptin, pepstatin and aprotinin, 10 μg/ml each). The cellular debris are removed during a new centrifugation step at 13,000 g during 15 minutes and the supernatant is immediately used for enzymatic purification.
(§5) Due to the presence of a Histidine tag associated with each of the ACS8, the latter are purified by using a nickel column (Ni-IDA 15 ml) previously balanced with TRIS at PH8 and NaCl (500 mM). After passing the solution containing recombinant ACS8 to be purified, the column is then washed with TRIS at PH8 (50 mM) and NaCl (500 mM) added with imidazole (10 mM) until no protein can be detected at the output any longer. The ACS8 are then eluted with the same buffer solution added with imidazole at 100 mM, then dialysed (KPhos 50 mM á PH8.5) before concentration (MILLIPORE AMICON ULTRA DEVICE, 5000 MWC0). The concentrated fraction (20 mg/ml) of ACS8 is aliquoted and stored with glycerol at −45° C. The purification of protein is followed by capillary electrophoresis (EXPERION DEVICE—BIO RAD) with a PRO260 chip.

In assay [4] the target is T1, Cucumis sativus ACS8 (1-aminocyclopropane-1-carboxylate synthase 8), CsACS8, wild, SEQ ID No 3 (Cucumis sativus, UniProt A0A0A0LKW1).
T1 construct: N-terminus MASLSSKASHDSHGQNSS
T1 sequence (A0A0A0LKW1 1-440): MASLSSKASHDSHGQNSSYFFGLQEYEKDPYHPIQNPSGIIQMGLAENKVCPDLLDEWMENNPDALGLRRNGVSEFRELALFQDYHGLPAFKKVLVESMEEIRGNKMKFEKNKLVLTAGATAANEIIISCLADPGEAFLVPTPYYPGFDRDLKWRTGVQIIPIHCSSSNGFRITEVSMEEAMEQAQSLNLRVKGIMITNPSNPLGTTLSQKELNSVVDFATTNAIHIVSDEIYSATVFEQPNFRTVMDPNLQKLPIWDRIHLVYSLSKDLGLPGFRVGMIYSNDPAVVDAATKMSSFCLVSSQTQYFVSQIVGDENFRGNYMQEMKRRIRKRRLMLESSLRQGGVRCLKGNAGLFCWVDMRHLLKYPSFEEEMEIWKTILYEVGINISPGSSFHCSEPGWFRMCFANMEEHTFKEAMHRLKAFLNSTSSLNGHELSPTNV
The description is as above. It counts as biochemical. To be noted: pH 8.5, 25° C. The protocol:
as §1, §2, §3, §4, §5

In assay [5] the target is Cucumis melo ACS8 variant Cmacs8_S295F (S295→F), SEQ ID No 18 (Cucumis melo, UniProt A0A0S2C3P7, S295F). The description is as above. Conditions: pH 8.5, 25° C. It is filed as biochemical. The procedure: as §1, §2, §3, §4, §5
The target in assay [6] is Cucumis melo ACS8 variant Cmacs8_G72E (G72E), SEQ ID not listed (Cucumis melo, UniProt A0A0S2C3P7, G72E). The description is as above. It is filed as biochemical. To be noted: pH 8.5, 25° C. The protocol: as §1, §2, §3, §4, §5
Cucumis melo ACS8 variant Cmacs8_G72E (G72E), SEQ ID not listed, sequence (A0A0S2C3P7 entry or part of it G72E): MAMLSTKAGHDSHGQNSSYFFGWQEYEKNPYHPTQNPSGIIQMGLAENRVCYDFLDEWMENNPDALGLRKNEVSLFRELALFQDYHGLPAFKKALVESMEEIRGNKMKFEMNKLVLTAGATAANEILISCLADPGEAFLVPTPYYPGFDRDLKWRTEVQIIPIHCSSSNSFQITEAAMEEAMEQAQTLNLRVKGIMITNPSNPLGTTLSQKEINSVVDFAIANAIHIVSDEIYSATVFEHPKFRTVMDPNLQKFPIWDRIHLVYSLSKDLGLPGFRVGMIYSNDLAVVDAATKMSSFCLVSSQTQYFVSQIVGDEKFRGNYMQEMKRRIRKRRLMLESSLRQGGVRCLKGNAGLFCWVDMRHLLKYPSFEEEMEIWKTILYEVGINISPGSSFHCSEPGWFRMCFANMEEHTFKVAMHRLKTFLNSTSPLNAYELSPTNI

Cucumis melo ACS8 (1-aminocyclopropane-1-carboxylate synthase 8), CmACS8, wild, SEQ ID No 12, sequence (A0A0S2C3P7 1-440): as the sequence (A0A0S2C3P7 entry or part of it G72E) above, with E72G counted along it
Cucumis melo ACS8 variant Cmacs8_S295F (S295→F), SEQ ID No 18, sequence (A0A0S2C3P7 entry or part of it S295F): as the sequence (A0A0S2C3P7 entry or part of it G72E) above, with E72G, S295F counted along it
Cucumis melo ACS8 variant Cmacs8_L45F (L45→F), SEQ ID No 15, sequence (A0A0S2C3P7 entry or part of it L45F): as the sequence (A0A0S2C3P7 entry or part of it G72E) above, with L45F, E72G counted along it

Take `O=P(O)(O)CCCl` [ethrel]: the “effect on male flowers” value with monoecious melon plants is “temporary disappearance of male flowers”. In addition, in assay [1], the “production of female flowers after treatment” value was “briefly produced female flowers”.
For orientation: Km means the concentration of substrate that gives half-maximal velocity. Take `C[S+](CC[C@H](N)C(=O)[O-])C[C@H]1O[C@@H](n2cnc3c(N)ncnc32)[C@H](O)[C@@H]1O` (some centres unmarked) [S-adenosyl Methionine]: the Michaelis-Menten constant (Km) in assay [2] was 23 ± 4 µM; in assay [3] (PLP 5 μm), 20 ± 5 µM; in assay [3] (PLP 100 μm), 20 ± 5 µM; in assay [4] (PLP 5 μm) it was 20 ± 6 µM; in assay [4] (PLP 100 μm) it was 25 ± 6 µM; in assay [5] (PLP 5 μm), 16 ± 5 µM. Further, the Km in assay [5] (PLP 100 μm) was 15 ± 5 µM; in assay [6] (PLP 5 μm), 17 ± 5 µM; in assay [6] (PLP 100 μm), 15 ± 5 µM.
